Biological target: T1, recombinant human FAAH (rhFAAH) (Homo sapiens, UniProt O00519)
T1 construct: purchased Cayman Chemical (Ann Arbor, MI, USA)
T1 sequence (O00519 1-579): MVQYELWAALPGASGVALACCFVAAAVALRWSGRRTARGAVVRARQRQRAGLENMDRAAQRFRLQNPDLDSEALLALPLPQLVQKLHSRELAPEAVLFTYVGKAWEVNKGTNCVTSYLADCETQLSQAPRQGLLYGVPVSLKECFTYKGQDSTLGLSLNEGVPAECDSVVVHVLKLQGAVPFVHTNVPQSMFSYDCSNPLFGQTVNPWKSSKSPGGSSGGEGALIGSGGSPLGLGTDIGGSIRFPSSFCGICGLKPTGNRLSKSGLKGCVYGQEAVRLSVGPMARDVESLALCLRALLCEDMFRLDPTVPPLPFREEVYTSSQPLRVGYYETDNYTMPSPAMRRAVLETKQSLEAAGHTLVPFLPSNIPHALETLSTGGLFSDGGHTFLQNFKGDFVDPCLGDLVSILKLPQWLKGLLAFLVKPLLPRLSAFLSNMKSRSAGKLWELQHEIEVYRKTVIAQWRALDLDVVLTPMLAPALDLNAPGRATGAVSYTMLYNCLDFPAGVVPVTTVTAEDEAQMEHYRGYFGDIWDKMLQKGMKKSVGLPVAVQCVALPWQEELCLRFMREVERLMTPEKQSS
Experiment: FAAH substrate evaluation (formation of acid metabolite, LC-MS/MS)
Assay type: biochemical
Set-up: key: A: ke is equal to or less than 1.0; B: ke is greater than 1.0 and less than or equal to 2.5; C: ke is greater than 2.5; NC: no conversion
Conditions: 0.5 ng/μL rhFAAH, 1 μM test compound, pH 8.0, room temperature, 0-60 minutes
Description: Purified recombinant human FAAH (rhFAAH) was purchased from Cayman Chemical (Ann Arbor, MI, USA). The total volume for each incubation was 400 μL containing a final 0.5 ng/μL rhFAAH, 1 μM test compound, 1.25% ethanol or 1 μM PF-3845 (FAAH inhibitor), and 0.1% bovine serum albumin in Tris-EDTA buffer at pH 8.0). The positive control was LL-341001. The incubation was conducted at the room temperature. At 0, 5, 15, 30 and 60 minutes, an aliquot of 30 μL reaction mixtures was removed and mixed with 300 μL acetonitrile containing 5 ng/mL terfenadine and 10 ng/mL tolbutamide as internal standards to quench the reaction. The resulting mixture was centrifuged at 4000 rpm, 4° C. for 15 minutes, and 100 μL supernatant was ready for LC-MS/MS analysis to measure the formation of acid metabolite.
Acquity Ultra Performance LC system from Waters was used for sample analysis. The chromatography was performed on a reverse phase Kinetex 2.6 μm C18 column, 2.1×30 mm, 100 Å. The mobile phase A comprised of 0.1% formic acid in water and mobile phase B comprised of 0.1% formic acid in acetonitrile with a 2-min run time at the flow rate of 0.8 mL/min for the acid metabolite from positive control or a 1.5 min run time at the flow rate of 0.9 mL/min for the acid metabolite of test compounds. The mass spectrometer (API-5500 and API Q Trap 4000 Applied Biosystems/MDS SCIEX Instruments, Framingham, MA, USA) was operated under ESI positive or negative ion MRM mode.
The formation of acid metabolite was monitored and quantified using one calibration point of 1 μM. The observed rate constant (ke) for the acid metabolite formation was calculated by plotting the metabolite concentration versus time of incubation with the slope being ke and is shown in Table 4.

| SMILES | ke, observed rate constant for the acid metabolite formation |
| --- | --- |
| CNC(=O)CNc1cc(C)c(Cc2ccc(O)c(C(C)C)c2F)c(Cl)c1 [Compound 235, 2-((3-chloro-4-(2-fluoro-4-hydroxy-3-isopropylbenzyl)-5-methylphenyl)amino)-N-methylacetamide] | A (ke is equal to or less than 1.0) |
| Cc1cc(CSCC(=O)N2CCC2)cc(Cl)c1Cc1ccc(O)c(C(C)C)c1 [Compound 228, 1-(azetidin-1-yl)-2-((3-chloro-4-(4-hydroxy-3-isopropylbenzyl)-5-methylbenzyl)thio)ethan-1-one] | A (ke is equal to or less than 1.0) |
| CNC(=O)CNc1cc(Cl)c(Cc2ccc(O)c(C(C)C)c2F)c(Cl)c1 [Compound 47, 2-((3,5-dichloro-4-(2-fluoro-4-hydroxy-3-isopropylbenzyl)phenyl)amino)-N-methylacetamide] | A (ke is equal to or less than 1.0) |
| CNC(=O)CSc1cc(Cl)c(Cc2ccc(O)c(C(C)C)c2F)c(Cl)c1 [Compound 188, 2-((3,5-dichloro-4-(2-fluoro-4-hydroxy-3-isopropylbenzyl)phenyl)thio)-N-methylacetamide] | B (ke is greater than 1.0 and less than or equal to 2.5) |
| CNC(=O)CNc1cc(Cl)c(Cc2ccc(O)c(C(C)C)c2)c(C)c1F [Compound 216, 2-((5-chloro-2-fluoro-4-(4-hydroxy-3-isopropylbenzyl)-3-methylphenyl)amino)-N-methylacetamide] | A (ke is equal to or less than 1.0) |
| CC(C)c1cc(Cc2c(Cl)cc(SCC(=O)Nc3ccnnc3)cc2Cl)ccc1O [Compound 173, 2-((3,5-dichloro-4-(4-hydroxy-3-isopropylbenzyl)phenyl)thio)-N-(pyridazin-4-yl)acetamide] | C (ke is greater than 2.5) |
| CC(C)c1cc(Cc2c(Cl)cc(SCC(=O)N3CCC3)cc2Cl)ccc1O [Compound 183, 1-(azetidin-1-yl)-2-((3,5-dichloro-4-(4-hydroxy-3-isopropylbenzyl)phenyl)thio)ethan-1-one] | A (ke is equal to or less than 1.0) |
| CC(C)CNC(=O)CSc1cc(Cl)c(Cc2ccc(O)c(C(C)C)c2)c(Cl)c1 [Compound 185, 2-((3,5-dichloro-4-(4-hydroxy-3-isopropylbenzyl)phenyl)thio)-N-isobutylacetamide] | NC |
| CNC(=O)CNCc1cc(Cl)c(Cc2ccc(O)c(C(C)C)c2)c(Cl)c1 [Compound 111, 2-((3,5-dichloro-4-(4-hydroxy-3-isopropylbenzyl)benzyl)amino)-N-methylacetamide] | A (ke is equal to or less than 1.0) |
| Cc1noc(NC(=O)CSc2cc(Cl)c(Cc3ccc(O)c(C(C)C)c3)c(Cl)c2)c1C [Compound 168, 2-((3,5-dichloro-4-(4-hydroxy-3-isopropylbenzyl)phenyl)thio)-N-(3,4-dimethylisoxazol-5-yl)acetamide] | B (ke is greater than 1.0 and less than or equal to 2.5) |
| CC(C)c1c(O)ccc(Cc2c(Cl)cc(NCC(=O)Nc3cccnn3)c(F)c2Cl)c1F [Compound 157, 2-((3,5-dichloro-2-fluoro-4-(2-fluoro-4-hydroxy-3-isopropylbenzyl)phenyl)amino)-N-(pyridazin-3-yl)acetamide] | B (ke is greater than 1.0 and less than or equal to 2.5) |
| CNC(=O)/C(C)=C/c1cc(Cl)c(Cc2ccc(O)c(C(C)C)c2)c(C)c1F [Compound 237, (E)-3-(5-chloro-2-fluoro-4-(4-hydroxy-3-isopropylbenzyl)-3-methylphenyl)-N,2-dimethylacrylamide] | A (ke is equal to or less than 1.0) |
| CNC(=O)CSCc1cc(Cl)c(Cc2ccc(O)c(C(C)C)c2F)c(Cl)c1 [Compound 147, 2-((3,5-dichloro-4-(2-fluoro-4-hydroxy-3-isopropylbenzyl)benzyl)thio)-N-methylacetamide] | C (ke is greater than 2.5) |
| C=C(Cc1cc(Cl)c(Cc2ccc(O)c(C(C)C)c2F)c(Cl)c1)C(=O)NC [Compound 177, 2-(3,5-dichloro-4-(2-fluoro-4-hydroxy-3-isopropylbenzyl)benzyl)-N-methylacrylamide] | NC |
| CNC(=O)CSCc1cc(C)c(Cc2ccc(O)c(C(C)C)c2)c(Cl)c1 [Compound 241, 2-((3-chloro-4-(4-hydroxy-3-isopropylbenzyl)-5-methylbenzyl)thio)-N-methylacetamide] | B (ke is greater than 1.0 and less than or equal to 2.5) |
| CCNC(=O)CSc1cc(Cl)c(Cc2ccc(O)c(C(C)C)c2)c(Cl)c1F [Compound 189, 2-((3,5-dichloro-2-fluoro-4-(4-hydroxy-3-isopropylbenzyl)phenyl)thio)-N-ethylacetamide] | A (ke is equal to or less than 1.0) |
| CNC(=O)/C=C/c1cc(C)c(Cc2ccc(O)c(C(C)C)c2F)c(Cl)c1 [Compound 239, (E)-3-(3-chloro-4-(2-fluoro-4-hydroxy-3-isopropylbenzyl)-5-methylphenyl)-N-methylacrylamide] | NC |
| CNC(=O)CCc1cc(Cl)c(Cc2ccc(O)c(C(C)C)c2F)c(Cl)c1F [Compound 72, 3-(3,5-dichloro-2-fluoro-4-(2-fluoro-4-hydroxy-3-isopropylbenzyl)phenyl)-N-methylpropanamide] | A (ke is equal to or less than 1.0) |
| CC(C)c1c(O)ccc(Cc2c(Cl)cc(NCC(N)=O)c(F)c2Cl)c1F [Compound 163, 2-((3,5-dichloro-2-fluoro-4-(2-fluoro-4-hydroxy-3-isopropylbenzyl)phenyl)amino)acetamide] | A (ke is equal to or less than 1.0) |
| CCNC(=O)CSc1cc(Cl)c(Cc2ccc(O)c(C(C)C)c2)c(Cl)c1 [Compound 186, 2-((3,5-dichloro-4-(4-hydroxy-3-isopropylbenzyl)phenyl)thio)-N-ethylacetamide] | A (ke is equal to or less than 1.0) |
| Cc1cc(CSCC(N)=O)cc(Cl)c1Cc1ccc(O)c(C(C)C)c1 [Compound 232, 2-((3-chloro-4-(4-hydroxy-3-isopropylbenzyl)-5-methylbenzyl)thio)acetamide] | C (ke is greater than 2.5) |
| CC(C)c1cc(Cc2c(Cl)cc(SCC(=O)NC3CC3)cc2Cl)ccc1O [Compound 180, N-cyclopropyl-2-((3,5-dichloro-4-(4-hydroxy-3-isopropylbenzyl)phenyl)thio)acetamide] | C (ke is greater than 2.5) |
| COc1ccc(NC(=O)CNc2cc(Cl)c(Cc3ccc(O)c(C(C)C)c3F)c(Cl)c2F)cn1 [Compound 158, 2-((3,5-dichloro-2-fluoro-4-(2-fluoro-4-hydroxy-3-isopropylbenzyl)phenyl)amino)-N-(6-methoxypyridin-3-yl)acetamide] | B (ke is greater than 1.0 and less than or equal to 2.5) |
| CC(C)c1cc(Cc2c(Cl)cc(SCC(=O)NCC3CC3)cc2Cl)ccc1O [Compound 181, N-(cyclopropylmethyl)-2-((3,5-dichloro-4-(4-hydroxy-3-isopropylbenzyl)phenyl)thio)acetamide] | A (ke is equal to or less than 1.0) |

— US12528761B2, “Thyromimetics” (Autobahn Therapeutics, Inc., priority 2020, dated 2026)
